According to patent US12496301B2, “Use of androgen receptor degrader for the treatment of spinal and bulbar muscular atrophy” (Arvinas Operations, Inc., priority 2023, dated 2025):
Entries after “also recorded” stand apart in the source; their conditions may differ. Blank lines part the entries; values can stand above or below the compound they belong to.

Assays:
[1] = test system: polyQ-AR; assay: Myotube high content imaging of polyQ-AR in myotubes that overexpress polyQ-AR; assay type: cell-based, human
Description: Cells were maintained in skeletal growth medium (PromoCell #23160). Immortalized myoblasts harboring inducible human androgen receptor with 56 CAG repeats (hAR56Q) were constructed by lentiviral transduction with CMV-rtTA and TetO-AR56Q-T2A-Puromycin (Mamchaoui, K. et al. Skeletal Muscle 1, 34 (2011)).
On day 0, immortalized myoblasts with inducible polyQ-AR (described above in “Cell lines”) cells were seeded onto Geltrex-coated 96-well plates at a density of 4×10^6 cells per plate in myoblast basal media (Promocell C-23060) supplemented with 1% penicillin-streptomycin (Pen Strep) antibiotics. The plates were then incubated overnight at 37° C. in a 5% CO2 environment. Upon reaching 100% confluency (Day 1), the myoblast media were aspirated and replaced with myotube differentiation media (Promocell C-23061). The cells were cultured in this differentiation media for 6 days, with media changes occurring every three days.
On the sixth day of differentiation, the compounds and doxycycline ([…]) diluted in 100% dimethyl sulfoxide (DMSO) were added to the myotubes. The plate was then incubated for 24 hours at 37° C. in an incubator. On the following day (Day 7), the culture media was removed from the plates and replaced with 50 μL of 4% paraformaldehyde (PFA) prepared in 1× phosphate-buffered saline (PBS). The plates were incubated with PFA for 15 minutes, followed by three washes with PBS. Subsequently, the myotubes were permeabilized for 15 minutes using 0.5% Triton X-100 in 1×PBS and then blocked with 5% Bovine Serum Albumin (BSA) (Thermofisher, #37520) for one hour at room temperature. After blocking, the plates were incubated overnight at 4° C. with primary antibodies: a 1:100 diluted Androgen Receptor antibody (D6F11 Cell Signaling 5135S) and a 1:200 diluted Desmin antibody (Thermofisher, MA1-22150) in PBS containing 0.1% BSA. […] Degradation was quantified by determining the average intensity of AR within separate nuclear and cytoplasmic compartments in Desmin positive area (myotubes).

[2] = biological target: T1, AR (Homo sapiens, UniProt P10275); assay: AR agonism assay in MDA-MB-453 ARE-luc reporter cells in the presence of pomalidomide; assay type: cell-based; conditions: MDA-MB-453 AR luciferase reporter, with pomalidomide
T1 sequence (P10275 1-920 Q868H): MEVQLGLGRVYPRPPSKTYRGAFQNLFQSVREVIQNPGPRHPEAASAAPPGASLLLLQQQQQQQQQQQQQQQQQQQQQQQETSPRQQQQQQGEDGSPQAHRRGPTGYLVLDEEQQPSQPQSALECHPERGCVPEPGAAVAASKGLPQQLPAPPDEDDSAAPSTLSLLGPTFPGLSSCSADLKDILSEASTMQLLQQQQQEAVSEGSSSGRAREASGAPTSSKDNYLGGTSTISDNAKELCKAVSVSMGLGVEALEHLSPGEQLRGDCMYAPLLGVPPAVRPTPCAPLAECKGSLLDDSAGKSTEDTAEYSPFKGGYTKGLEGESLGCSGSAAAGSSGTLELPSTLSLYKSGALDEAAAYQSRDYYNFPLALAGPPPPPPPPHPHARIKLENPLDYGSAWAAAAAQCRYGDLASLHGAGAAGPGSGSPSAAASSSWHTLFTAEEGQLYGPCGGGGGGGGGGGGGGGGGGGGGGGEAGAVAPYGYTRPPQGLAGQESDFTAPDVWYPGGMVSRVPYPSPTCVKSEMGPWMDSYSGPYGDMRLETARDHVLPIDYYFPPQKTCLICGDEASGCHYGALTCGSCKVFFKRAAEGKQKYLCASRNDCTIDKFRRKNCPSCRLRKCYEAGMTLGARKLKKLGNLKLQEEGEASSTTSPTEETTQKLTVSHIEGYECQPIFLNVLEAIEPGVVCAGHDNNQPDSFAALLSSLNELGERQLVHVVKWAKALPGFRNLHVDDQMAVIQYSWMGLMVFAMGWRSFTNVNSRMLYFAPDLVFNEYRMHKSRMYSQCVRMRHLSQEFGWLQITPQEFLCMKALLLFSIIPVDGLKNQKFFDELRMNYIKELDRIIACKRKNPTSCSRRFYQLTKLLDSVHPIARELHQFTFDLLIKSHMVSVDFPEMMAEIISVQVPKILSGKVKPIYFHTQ
Description: The AR Responsive Luciferase Reporter MDA-MB-453 Stable Cell Line (MDA-MB-453 ARE-luc) was utilized for the AR agonism assay. These cells constitutively express the firefly luciferase reporter gene under the control of the androgen receptor response element. MDA-MB-453 ARE-luc cells were cultured in RPMI media (Thermo Fisher Scientific) supplemented with 5% charcoal-Dextran treated fetal bovine serum and were maintained at 37° C. in a 5% CO2 incubator. On day 0, the cells were seeded in 96-well plates at a density of 5×10^6 cells per plate. To prevent serum androgen interference during the AR agonism assay, the cells were cultured in phenol-free RPMI media without FBS. On day 1, the cells were treated with the compounds to establish concentration-response curves (CRCs). The compounds were administered at a top concentration of 300 nM with half-log dilutions. The synthetic AR agonist R1881 served as a positive control, with a top concentration of 30 nM and half-log dilutions. E3 ligase inhibitor pomalidomide was included in each well alongside the compounds at a concentration tenfold higher than that of the treated compounds. On day 2, the culture medium was removed, and luminescence data were obtained using the Bright Glo Assay (Promega, Catalog No. E2620) with 50 μL of Bright Glo buffer per well. Luminescence signals were recorded using a plate reader, and the agonism effect was calculated as a percentage using the formula: Agonism effect (%)=(Luminescence signal of compound/Maximum signal of R1881 at 30 nM)*100.

[3] = test system: hepatocyte; assay: In vitro ADMET: hepatocyte toxicity; assay type: cell-based; conditions: at 1 μM
[4] = Oral bioavailability in non-human primates; assay type: in vivo
[5] = test system: polyQ-AR; assay: Global proteomics in SBMA hiPSC-myotubes: polyQ-AR and specificity; assay type: cell-based, human; conditions: 12 nM, SBMA hiPSC-myotubes
From the text: (§1) (FIG. 12A). […] (FIG. 12C).

[6] = test system: polyQ-AR; assay: polyQ-AR degradation in SBMA patient hiPSC-derived myotubes, capillary immunoassay; assay type: cell-based, human; conditions: concentration response
Description: Lysates for hiPSC-derived myotubes were prepared in lysis buffer ([…], 50 mM sodium chloride, 1% NP-40, 1% SDS) supplemented with Halt Protease Inhibitor (78437 Thermo Fisher Scientific), Benzonase, and MgCl2 (1 mM final concentration). The lysates were cleared by centrifugation at 4° C. and supernatants were quantified using the BIO-RAD DC protein assay (5000112 BIO-RAD). The AR and protein levels were quantified by an automated capillary immunoassay experiment (ProteinSimple). The AR and Myosin Protein levels were quantified and normalized to total protein.
Control and SBMA hiPSCs were differentiated into myotubes as previously described (Caron, L. et al. 2016, STEM CELLS Transl. Med. 5, 1145-1161) using the skeletal muscle differentiation kit (Amsbio). hiPSCs were dissociated to single cells using Accutase and plated on Geltrex-coated 10 cm culture plates at a density of 200,000 cells per plate with SBMA hiPSCs in skeletal muscle induction media (SKM01, AMSBIO). Media changes were performed every second day until cells were confluent (˜7 days). The resulting myogenic precursor cells were then dissociated to single cells using Accutase and replated on Matrigel-coated 24-well tissue culture plate with 500 μL of cells at 35,000 cells per mL in skeletal myoblast media (SKM02, AMSBIO). Half media changes were performed every second day until myoblasts reached confluence (˜7 days). The media was then switched to myotube medium (SKM03, ASMBIO). Media changes every second day until myotube formation was confirmed by microscopy. Myotubes were treated on day 20 of differentiation (6 days' worth of SKM03 media) with compounds diluted in DMSO for a final DMSO concentration of 0.01% in SKM03 media. The cells were lysed 24 hours later in Pierce RIPA buffer (Cat. No. 89900, ThermoFisher) supplemented with 1× Halt protease inhibitor cocktail (Cat. No. 87786, ThermoFisher), 1 mM MgCl2, and 1 μL Benzonase Nuclease. AR protein was measured by capillary electrophoresis. […]

[7] = biological target: T2, PDE6D (Homo sapiens, UniProt O43924); assay: Global proteomics / Western blot in SBMA hiPSC-myotubes: neosubstrate PDE6D; assay type: cell-based; conditions: global proteomics, SBMA hiPSC-myotubes
T2 construct: endogenous in cells; host or cells: SBMA hiPSC-derived myotubes
From the text: as §1

[8] = biological target: hERG (Homo sapiens, UniProt Q12809); assay: In vitro ADMET: hERG inhibition
Chain of hERG (Q12809 whole entry): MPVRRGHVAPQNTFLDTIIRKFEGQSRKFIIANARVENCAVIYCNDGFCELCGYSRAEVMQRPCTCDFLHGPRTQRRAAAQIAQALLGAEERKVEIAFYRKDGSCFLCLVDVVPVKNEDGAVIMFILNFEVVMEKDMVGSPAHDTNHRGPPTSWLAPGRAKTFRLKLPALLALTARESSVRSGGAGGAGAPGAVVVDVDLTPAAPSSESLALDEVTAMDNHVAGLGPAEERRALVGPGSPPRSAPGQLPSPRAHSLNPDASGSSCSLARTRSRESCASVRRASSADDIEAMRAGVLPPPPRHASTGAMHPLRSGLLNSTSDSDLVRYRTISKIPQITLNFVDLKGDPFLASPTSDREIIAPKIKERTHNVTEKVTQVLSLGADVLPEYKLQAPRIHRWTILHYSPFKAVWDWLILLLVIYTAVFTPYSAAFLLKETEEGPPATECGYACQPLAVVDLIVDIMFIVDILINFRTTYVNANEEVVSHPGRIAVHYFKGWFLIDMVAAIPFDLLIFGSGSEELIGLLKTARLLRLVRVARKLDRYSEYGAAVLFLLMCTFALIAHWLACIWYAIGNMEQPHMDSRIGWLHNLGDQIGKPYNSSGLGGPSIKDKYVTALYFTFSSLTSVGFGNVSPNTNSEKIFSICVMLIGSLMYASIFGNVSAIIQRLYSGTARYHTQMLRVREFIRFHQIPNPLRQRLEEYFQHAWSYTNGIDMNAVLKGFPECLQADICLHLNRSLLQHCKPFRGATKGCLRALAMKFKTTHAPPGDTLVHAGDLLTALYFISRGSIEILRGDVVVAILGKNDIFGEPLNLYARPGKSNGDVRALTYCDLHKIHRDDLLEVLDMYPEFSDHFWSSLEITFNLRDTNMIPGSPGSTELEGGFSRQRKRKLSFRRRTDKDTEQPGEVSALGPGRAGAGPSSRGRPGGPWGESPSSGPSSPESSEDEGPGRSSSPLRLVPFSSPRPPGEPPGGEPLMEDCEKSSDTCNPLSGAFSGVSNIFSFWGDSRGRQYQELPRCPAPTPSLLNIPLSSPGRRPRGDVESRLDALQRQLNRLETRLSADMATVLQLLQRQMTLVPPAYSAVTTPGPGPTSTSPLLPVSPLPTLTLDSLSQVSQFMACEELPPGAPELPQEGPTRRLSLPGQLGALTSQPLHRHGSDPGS

T2 sequence (O43924 whole entry): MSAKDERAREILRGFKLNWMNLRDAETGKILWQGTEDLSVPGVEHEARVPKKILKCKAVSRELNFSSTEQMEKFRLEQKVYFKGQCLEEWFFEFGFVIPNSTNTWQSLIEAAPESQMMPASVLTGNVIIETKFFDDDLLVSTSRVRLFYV

Structure (SMILES): CC1(C)[C@H](NC(=O)c2cnc(N3CCC(CN4CCN(c5cc6c(cc5F)C(=O)N(C5CCC(=O)NC5=O)C6=O)CC4)CC3)nc2)C(C)(C)[C@H]1Oc1ccc(C#N)c(Cl)c1 (stereo partly shown) [Compound C]
hepatocyte toxicity [3]: 50%

Structure (SMILES): COc1cc(O[C@H]2CC[C@H](NC(=O)c3cnc(N4CCC(CN(C(C)C)[C@H]5C[C@H](Oc6ccc7c(c6)C(=O)N(C6CCC(=O)NC6=O)C7=O)C5)CC4)cn3)CC2)ccc1C#N (stereo partly shown) [Compound E]
oral bioavailability [4]: poor oral bioavailability

Structure (SMILES): CCN(CC1CCN(c2cnc(C(=O)N[C@H]3C(C)(C)[C@H](Oc4cc(C)c(C#N)c(C)c4)C3(C)C)cn2)CC1)[C@H]1C[C@H](Oc2ccc3c(c2)C(=O)N(C2CCC(=O)NC2=O)C3=O)C1 (stereo partly shown) [Compound D]
hERG inhibition [8]: < 10 µM

Second part, led by results:

agonism activity at Emax relative to R1881 [2]: > 40% | EC50 ([2]; read-out: EC50, AR agonist activity): 37 nM
Structure (SMILES): Cc1cc(O[C@H]2C(C)(C)[C@H](NC(=O)c3cnc(N4CCC(CN(C(C)C)[C@H]5C[C@H](Oc6ccc7c(c6)C(=O)N(C6CCC(=O)NC6=O)C7=O)C5)CC4)nc3)C2(C)C)cc(C)c1C#N (stereo partly shown) [Compound B]
mean Dmax for polyQ-AR in myotube nuclei ([1]; 24 hours treatment, nuclear compartment): increase in nuclear polyQ-AR | total polyQ-AR signal in myotubes ([1]; data not shown): reduced the total polyQ-AR signal

PDE6D as neosubstrate [7]: not a neosubstrate
Structure (SMILES): CC(C)N(CC1CCN(c2ncc(C(=O)N[C@H]3C(C)(C)[C@H](Oc4ccc(C#N)c(Cl)c4)C3(C)C)cn2)CC1)[C@H]1C[C@H](Oc2ccc3c(c2)C(=O)N(C2CCCN(C)C2=O)C3=O)C1 (stereo partly shown) [Compound F, reference compound]
polyQ-AR degradation compared to control, global proteomics [5]: does not induce degradation; also recorded: does not degrade AR | polyQ-AR degradation in SBMA hiPSC-myotubes [6]: did not induce polyQ-AR degradation
